In the supplement of paper PMC11061612:

Legend:
AZD5991 = compound: Cc1c2c(nn1C)CSCc1cc(n(C)n1)CSc1cc(c3ccccc3c1)OCCCc1c(C(=O)O)n(C)c3c-2c(Cl)ccc13 [AZD5991]; details: max 1 µM
Summary of the method: (§1)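 Viability was measured with CellTiter-Glo 2.0 luminescence after 72 hours of dosing at a final DMSO of typically 0.2%, and scaled between blank-well and DMSO-well means. Beforehand, cancer cell lines sat 24 hours at 37°C and 5% CO2 in 1536-well plates in 7.5 μl DMEM/F12 or RPMI with 10% FBS. A non-linear mixed effects model fitted two-parameter logistic curves to the dose responses. The single-agent IC50 comes from these fits.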

AZD1390 = compound: CC(C)n1c(=O)n(C)c2cnc3cc(F)c(-c4ccc(OCCCN5CCCCC5)nc4)cc3c21 [AZD1390]; details: max 0.3 µM
Summary of the method: as §1

Gemcitabine = compound: Nc1ccn([C@@H]2O[C@H](CO)[C@@H](O)C2(F)F)c(=O)n1 [Gemcitabine]; details: max 0.3 µM
Summary of the method: as §1

AZD5363 = compound: C1CN(CCC1(C(=O)N[C@@H](CCO)C2=CC=C(C=C2)Cl)N)C3=NC=NC4=C3C=CN4 [AZD5363]; details: max 10 µM
Summary of the method: as §1

SN-38 = compound: CCc1c2c(nc3ccc(O)cc13)-c1cc3c(c(=O)n1C2)COC(=O)[C@]3(O)CC [SN-38]; details: max 0.3 µM
Summary of the method: as §1

AZD8186 = compound: C[C@@H](Nc1cc(F)cc(F)c1)c1cc(C(=O)N(C)C)cc2c(=O)cc(N3CCOCC3)oc12 [AZD8186]; details: max 10 µM
Summary of the method: as §1

5-Fluorouracil = compound: O=c1[nH]cc(F)c(=O)[nH]1 [5-Fluorouracil]; details: max 20 µM
Summary of the method: as §1

Alisertib = compound: COc1cc(Nc2ncc3c(n2)-c2ccc(Cl)cc2C(c2c(F)cccc2OC)=NC3)ccc1C(=O)O [Alisertib]; details: max 10 µM
Summary of the method: as §1

AZD1775 = compound: C=CCn1c(=O)c2cnc(Nc3ccc(N4CCN(C)CC4)cc3)nc2n1-c1cccc(C(C)(C)O)n1 [AZD1775]
Summary of the method: as §1

Olaparib = compound: O=C(c1cc(Cc2n[nH]c(=O)c3ccccc23)ccc1F)N1CCN(C(=O)C2CC2)CC1 [Olaparib]; details: max 10 µM
Summary of the method: as §1

MK-2206 = compound: NC1(c2ccc(-c3nc4ccn5c(=O)[nH]nc5c4cc3-c3ccccc3)cc2)CCC1 [MK-2206]; details: max 10 µM
Summary of the method: as §1

SG3199 = compound: CC1=CN2[C@@H](C1)C=NC3=CC(=C(C=C3C2=O)OC)OCCCCCOC4=C(C=C5C(=C4)N=C[C@@H]6CC(=CN6C5=O)C)OC [SG3199]; details: max 0.001 µM
Summary of the method: as §1

[1] = compound: O=C(Nc1ccc2[nH]nc(-c3ccncc3)c2c1)[C@@H]1CCN(CC(=O)N2CCN(c3ccc(-c4ncccn4)cc3)CC2)C1; details: max 5 µM
Summary of the method: as §1

Palbociclib = compound: CC(=O)c1c(C)c2cnc(Nc3ccc(N4CCNCC4)cn3)nc2n(C2CCCC2)c1=O [Palbociclib]; details: max 10 µM
Summary of the method: as §1

AZD0156 = compound: CN(C)CCCOc1ccc(-c2ccc3ncc4c(c3c2)n(C2CCOCC2)c(=O)n4C)cn1 [AZD0156]
Summary of the method: as §1

Gefitinib = compound: COc1cc2ncnc(Nc3ccc(F)c(Cl)c3)c2cc1OCCCN1CCOCC1 [Gefitinib]; details: max 10 µM
Summary of the method: as §1

Etoposide = compound: COc1cc([C@@H]2c3cc4c(cc3[C@@H](O[C@@H]3O[C@@H]5CO[C@@H](C)O[C@H]5[C@H](O)[C@H]3O)[C@H]3COC(=O)[C@H]23)OCO4)cc(OC)c1O [Etoposide]; details: max 10 µM
Summary of the method: as §1

Paclitaxel = compound: CC(=O)O[C@H]1C(=O)[C@@]2(C)[C@H]([C@H](OC(=O)c3ccccc3)[C@]3(O)C[C@H](OC(=O)[C@H](O)[C@@H](NC(=O)c4ccccc4)c4ccccc4)C(C)=C1C3(C)C)[C@]1(OC(C)=O)CO[C@@H]1C[C@@H]2O [Paclitaxel]; details: max 3 µM
Summary of the method: as §1

AZD2811 = compound: CCN(CCO)CCCOc1ccc2c(Nc3cc(CC(=O)Nc4cccc(F)c4)[nH]n3)ncnc2c1 [AZD2811]; details: max 1 µM
Summary of the method: as §1

Trametinib = compound: CC(=O)Nc1cccc(-n2c(=O)n(C3CC3)c(=O)c3c(Nc4ccc(I)cc4F)n(C)c(=O)c(C)c32)c1 [Trametinib]; details: max 1 µM
Summary of the method: as §1

Savolitinib = compound: C[C@@H](c1ccc2nccn2c1)n1nnc2ncc(-c3cnn(C)c3)nc21 [Savolitinib]; details: max 1 µM
Summary of the method: as §1

AZD5153 = compound: COc1nnc2ccc(N3CCC(c4ccc(OCCN5CCN(C)C(=O)[C@H]5C)cc4)CC3)nn12 [AZD5153]; details: max 1 µM
Summary of the method: as §1

Doxorubicin = compound: COc1cccc2c1C(=O)c1c(O)c3c(c(O)c1C2=O)C[C@@](O)(C(=O)CO)C[C@@H]3O[C@H]1C[C@H](N)[C@H](O)[C@H](C)O1 [Doxorubicin]; details: max 1 µM
Summary of the method: as §1

AZD4320 = compound: CN(CC[C@H](CSC1=CC=CC=C1)NC2=C(C=C(C=C2)S(=O)(=O)NC(=O)C3=CC=C(C=C3)N4CCC(CC4)[C@H](C5=CC=CC=C5C6=CC=C(C=C6)Cl)O)S(=O)(=O)C(F)(F)F)CCO [AZD4320]; details: max 1 µM
Summary of the method: as §1

Carboplatin = compound: C1CC(C1)(C(=O)[O-])C(=O)[O-].N.N.[Pt+2] [Carboplatin]; details: max 10 µM
Summary of the method: as §1

AZD6738 = compound: C[C@@H]1COCCN1C2=NC(=NC(=C2)C3(CC3)[S@](=N)(=O)C)C4=C5C=CNC5=NC=C4 [AZD6738]; details: max 10 µM
Summary of the method: as §1

Lapatinib = compound: CS(=O)(=O)CCNCc1ccc(-c2ccc3ncnc(Nc4ccc(OCc5cccc(F)c5)c(Cl)c4)c3c2)o1 [Lapatinib]; details: max 10 µM
Summary of the method: as §1

Crizotinib = compound: C[C@@H](Oc1cc(-c2cnn(C3CCNCC3)c2)cnc1N)c1c(Cl)ccc(F)c1Cl [Crizotinib]; details: max 10 µM
Summary of the method: as §1

Venetoclax = compound: CC1(C)CCC(CN2CCN(c3ccc(C(=O)NS(=O)(=O)c4ccc(NCC5CCOCC5)c([N+](=O)[O-])c4)c(Oc4cnc5[nH]ccc5c4)c3)CC2)=C(c2ccc(Cl)cc2)C1 [Venetoclax]; details: max 1 µM
Summary of the method: as §1

Taselisib = compound: Cc1nc(-c2cn3c(n2)-c2ccc(-c4cnn(C(C)(C)C(N)=O)c4)cc2OCC3)n(C(C)C)n1 [Taselisib]; details: max 10 µM
Summary of the method: as §1

SRA737 = compound: N#Cc1cnc(Nc2cc(NC[C@H]3CNCCO3)c(C(F)(F)F)cn2)cn1 [SRA737]; details: max 10 µM
Summary of the method: as §1

Prexasertib = compound: COc1cccc(OCCCN)c1-c1cc(Nc2cnc(C#N)cn2)n[nH]1 [Prexasertib]; details: max 1 µM
Summary of the method: as §1

Selumetinib = compound: Cn1cnc2c(F)c(Nc3ccc(Br)cc3Cl)c(C(=O)NOCCO)cc21 [Selumetinib]; details: max 10 µM
Summary of the method: as §1

AZD7648 = compound: Cc1cc2ncnn2cc1Nc1ncc2c(n1)n(C1CCOCC1)c(=O)n2C [AZD7648]; details: max 10 µM
Summary of the method: as §1

Dasatinib = compound: CC1=C(C(=CC=C1)Cl)NC(=O)C2=CN=C(S2)NC3=CC(=NC(=N3)C)N4CCN(CC4)CCO [Dasatinib]; details: max 2 µM
Summary of the method: as §1

Cell Line | IC50, cell viability 72 h (AZD5991) [nM] | IC50, cell viability 72 h (AZD1390) [nM] | IC50, cell viability 72 h (Gemcitabine) [nM] | IC50, cell viability 72 h (AZD5363) [nM] | IC50, cell viability 72 h (SN-38) [nM] | IC50, cell viability 72 h (AZD8186) [nM] | IC50, cell viability 72 h (5-Fluorouracil) [nM] | IC50, cell viability 72 h (Alisertib) [nM] | IC50, cell viability 72 h (AZD1775; max 3 µM) [nM] | IC50, cell viability 72 h (Olaparib) [nM] | IC50, cell viability 72 h (MK-2206) [nM] | IC50, cell viability 72 h (SG3199) [nM] | IC50, cell viability 72 h [1] [nM] | IC50, cell viability 72 h (Palbociclib) [nM] | IC50, cell viability 72 h (AZD0156; max 3 µM) [nM] | IC50, cell viability 72 h (Gefitinib) [nM] | IC50, cell viability 72 h (Etoposide) [nM] | IC50, cell viability 72 h (Paclitaxel) [nM] | IC50, cell viability 72 h (AZD2811) [nM] | IC50, cell viability 72 h (Trametinib) [nM] | IC50, cell viability 72 h (Savolitinib) [nM] | IC50, cell viability 72 h (AZD5153) [nM] | IC50, cell viability 72 h (Doxorubicin) [nM] | IC50, cell viability 72 h (AZD4320) [nM] | IC50, cell viability 72 h (Carboplatin) [nM] | IC50, cell viability 72 h (AZD6738) [nM] | IC50, cell viability 72 h (Lapatinib) [nM] | IC50, cell viability 72 h (Crizotinib) [nM] | IC50, cell viability 72 h (Venetoclax) [nM] | IC50, cell viability 72 h (Taselisib) [nM] | IC50, cell viability 72 h (SRA737) [nM] | IC50, cell viability 72 h (Prexasertib) [nM] | IC50, cell viability 72 h (Selumetinib) [nM] | IC50, cell viability 72 h (AZD7648) [nM] | IC50, cell viability 72 h (Dasatinib) [nM] | IC50, cell viability 72 h (AZD1775; max 1 µM) [nM] | IC50, cell viability 72 h (AZD0156; max 1 µM) [nM]
HLE (Hepatocellular Carcinoma) | > 1000 | > 300 | 114 | > 10000 | 14.3 | > 10000 | > 20000 | 2230 | 625 | > 10000 | > 10000 | > 1 | > 5000 | > 10000 | > 3000 | > 10000 | > 10000 | 60.3 | > 1000 | > 1000 | > 1000 | > 1000 | 426 | > 1000 | > 10000 | 4910 | > 10000 | > 10000 | > 1000 | > 10000 | > 10000 | 107 | > 10000 | > 10000 | > 2000 |  | 
HCT-116 (Colorectal Carcinoma) | > 1000 | > 300 | 13.1 | > 10000 | 19 | > 10000 | 10600 | 1070 | 1960 | > 10000 | > 10000 | > 1 | 129 | 8690 | > 3000 | > 10000 | 5460 | 3.24 | > 1000 | 16.3 | > 1000 | 244 | 218 | > 1000 | > 10000 | 6970 | > 10000 | 2760 | > 1000 | 2170 | > 10000 | 635 | 2500 | > 10000 | > 2000 |  | 
SW48 (Colorectal Carcinoma) | > 1000 | > 300 | 92.6 | > 10000 | 13.3 | > 10000 | > 20000 | 58.4 |  | > 10000 | > 10000 | > 1 | 1330 | > 10000 |  | > 10000 | 517 | 3.37 | 23.9 | 123 | > 1000 | 254 | 68.6 | > 1000 | > 10000 | 7010 | 8920 | 3360 | > 1000 | 2370 | > 10000 | 117 | > 10000 | > 10000 | > 2000 | > 1000 | > 1000
WSU-DLCL2 (B-Cell Non-Hodgkin's Lymphoma) | 137 | > 300 | 6.5 | 253 | 5.96 | 5810 | > 20000 | 1640 | 531 | > 10000 | 1670 | > 1 | > 5000 | 7440 | 2150 | > 10000 | 730 | 4.48 | > 1000 | > 1000 | > 1000 | 55.9 | 53.9 | 794 | > 10000 | 2690 | > 10000 | 8080 | > 1000 | 2700 | > 10000 | 18.8 | > 10000 | > 10000 | > 2000 |  | 
SW948 (Colorectal Carcinoma) | > 1000 | > 300 | > 300 | 6290 | > 300 | > 10000 | > 20000 | 44.4 | 1390 | > 10000 | > 10000 | > 1 | 2470 | > 10000 | > 3000 | > 10000 | > 10000 | 29.9 | > 1000 | 35.2 | > 1000 | 918 | > 1000 | > 1000 | > 10000 | > 10000 | > 10000 | 5440 | > 1000 | 343 | > 10000 | 136 | 1080 | > 10000 | > 2000 |  | 
